Experimental data taken from ChEMBL document CHEMBL4014275, “Discovery of benzofuran-3(2H)-one derivatives as novel DRAK2 inhibitors that protect islet β-cells from apoptosis” (Eur J Med Chem, 2017).

Columns and labels:
[1] = molecular target: T1, Serine/threonine-protein kinase 17B (Homo sapiens, UniProt O94768); experiment: Inhibition of recombinant GST-tagged DRAK2 (unknown origin) autophosphorylation after 2 hrs by ADP-glo assay
T1 sequence (O94768 whole entry): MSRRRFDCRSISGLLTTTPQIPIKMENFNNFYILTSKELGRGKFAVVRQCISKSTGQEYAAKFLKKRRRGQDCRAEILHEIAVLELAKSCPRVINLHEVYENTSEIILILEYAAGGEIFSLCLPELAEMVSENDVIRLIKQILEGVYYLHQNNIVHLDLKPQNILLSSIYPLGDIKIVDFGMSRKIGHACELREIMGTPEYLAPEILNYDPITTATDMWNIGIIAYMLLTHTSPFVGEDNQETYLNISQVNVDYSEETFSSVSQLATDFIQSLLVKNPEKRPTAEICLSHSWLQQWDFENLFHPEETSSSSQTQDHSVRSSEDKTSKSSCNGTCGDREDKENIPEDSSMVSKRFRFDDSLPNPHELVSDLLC

[2] = molecular target: Death-associated protein kinase 2 (Homo sapiens, UniProt Q9UIK4); experiment: Inhibition of human DAPK2
[3] = molecular target: Death-associated protein kinase 3 (Homo sapiens, UniProt O43293); experiment: Inhibition of human DAPK3
[4] = molecular target: Tyrosine-protein kinase Blk (Homo sapiens, UniProt P51451); experiment: Inhibition of human BLK
[5] = molecular target: T2, Aurora kinase A (Homo sapiens, UniProt O14965); experiment: Inhibition of human AURORA-A
T2 sequence (O14965 whole entry): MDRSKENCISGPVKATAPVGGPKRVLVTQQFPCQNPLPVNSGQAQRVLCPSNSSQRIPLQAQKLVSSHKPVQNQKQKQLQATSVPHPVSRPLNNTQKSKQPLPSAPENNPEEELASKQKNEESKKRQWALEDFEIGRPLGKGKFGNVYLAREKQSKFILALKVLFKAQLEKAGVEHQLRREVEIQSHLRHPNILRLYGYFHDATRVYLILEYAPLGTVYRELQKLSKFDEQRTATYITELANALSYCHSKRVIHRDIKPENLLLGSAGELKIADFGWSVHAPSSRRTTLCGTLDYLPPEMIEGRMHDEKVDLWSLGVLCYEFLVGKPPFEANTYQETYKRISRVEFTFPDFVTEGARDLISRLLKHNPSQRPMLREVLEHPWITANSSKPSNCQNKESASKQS

[6] = molecular target: Tyrosine-protein kinase BTK (Homo sapiens, UniProt Q06187); experiment: Inhibition of human BTK
[7] = molecular target: T3, Tyrosine-protein kinase ITK/TSK (Homo sapiens, UniProt Q08881); experiment: Inhibition of human ITK
T3 sequence (Q08881 whole entry): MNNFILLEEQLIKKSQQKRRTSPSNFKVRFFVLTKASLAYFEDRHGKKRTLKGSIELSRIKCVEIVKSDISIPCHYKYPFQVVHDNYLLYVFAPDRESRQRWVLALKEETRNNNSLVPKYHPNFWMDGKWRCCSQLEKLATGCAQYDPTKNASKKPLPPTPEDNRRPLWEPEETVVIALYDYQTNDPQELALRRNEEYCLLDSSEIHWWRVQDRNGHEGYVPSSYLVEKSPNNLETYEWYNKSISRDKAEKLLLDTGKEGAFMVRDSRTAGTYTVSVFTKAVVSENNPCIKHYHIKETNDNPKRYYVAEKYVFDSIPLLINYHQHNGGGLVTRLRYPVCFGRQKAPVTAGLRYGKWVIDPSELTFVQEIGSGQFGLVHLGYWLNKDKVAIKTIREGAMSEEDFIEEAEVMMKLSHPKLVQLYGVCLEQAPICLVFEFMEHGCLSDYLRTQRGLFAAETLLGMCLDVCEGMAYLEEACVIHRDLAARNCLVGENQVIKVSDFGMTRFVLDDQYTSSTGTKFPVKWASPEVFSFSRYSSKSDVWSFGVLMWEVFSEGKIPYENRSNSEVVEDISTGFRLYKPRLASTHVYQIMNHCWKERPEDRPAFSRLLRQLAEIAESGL

[8] = molecular target: Glycogen synthase kinase-3 beta (Homo sapiens, UniProt P49841); experiment: Inhibition of human GSK3beta
[9] = molecular target: Cyclin-dependent kinase 5 (Homo sapiens, UniProt Q00535); experiment: Inhibition of human CDK5
[10] = molecular target: Angiopoietin-1 receptor (Homo sapiens, UniProt Q02763); experiment: Inhibition of human TEK
[11] = molecular target: T4, Serine/threonine-protein kinase 17A (Homo sapiens, UniProt Q9UEE5); experiment: Inhibition of human DRAK1
T4 sequence (Q9UEE5 whole entry): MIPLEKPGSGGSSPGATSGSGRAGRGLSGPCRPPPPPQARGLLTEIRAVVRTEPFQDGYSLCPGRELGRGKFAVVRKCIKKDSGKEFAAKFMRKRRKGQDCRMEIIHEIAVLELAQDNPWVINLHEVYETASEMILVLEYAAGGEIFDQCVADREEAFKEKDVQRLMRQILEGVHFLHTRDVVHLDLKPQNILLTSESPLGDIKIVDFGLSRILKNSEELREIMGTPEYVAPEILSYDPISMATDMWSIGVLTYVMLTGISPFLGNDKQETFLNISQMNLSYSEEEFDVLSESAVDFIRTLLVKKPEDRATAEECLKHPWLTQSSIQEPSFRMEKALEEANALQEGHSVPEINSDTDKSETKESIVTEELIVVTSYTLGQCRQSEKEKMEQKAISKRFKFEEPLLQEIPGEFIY

[12] = molecular target: T5, Tyrosine-protein kinase JAK3 (Homo sapiens, UniProt P52333); experiment: Inhibition of human JAK3
T5 sequence (P52333 whole entry): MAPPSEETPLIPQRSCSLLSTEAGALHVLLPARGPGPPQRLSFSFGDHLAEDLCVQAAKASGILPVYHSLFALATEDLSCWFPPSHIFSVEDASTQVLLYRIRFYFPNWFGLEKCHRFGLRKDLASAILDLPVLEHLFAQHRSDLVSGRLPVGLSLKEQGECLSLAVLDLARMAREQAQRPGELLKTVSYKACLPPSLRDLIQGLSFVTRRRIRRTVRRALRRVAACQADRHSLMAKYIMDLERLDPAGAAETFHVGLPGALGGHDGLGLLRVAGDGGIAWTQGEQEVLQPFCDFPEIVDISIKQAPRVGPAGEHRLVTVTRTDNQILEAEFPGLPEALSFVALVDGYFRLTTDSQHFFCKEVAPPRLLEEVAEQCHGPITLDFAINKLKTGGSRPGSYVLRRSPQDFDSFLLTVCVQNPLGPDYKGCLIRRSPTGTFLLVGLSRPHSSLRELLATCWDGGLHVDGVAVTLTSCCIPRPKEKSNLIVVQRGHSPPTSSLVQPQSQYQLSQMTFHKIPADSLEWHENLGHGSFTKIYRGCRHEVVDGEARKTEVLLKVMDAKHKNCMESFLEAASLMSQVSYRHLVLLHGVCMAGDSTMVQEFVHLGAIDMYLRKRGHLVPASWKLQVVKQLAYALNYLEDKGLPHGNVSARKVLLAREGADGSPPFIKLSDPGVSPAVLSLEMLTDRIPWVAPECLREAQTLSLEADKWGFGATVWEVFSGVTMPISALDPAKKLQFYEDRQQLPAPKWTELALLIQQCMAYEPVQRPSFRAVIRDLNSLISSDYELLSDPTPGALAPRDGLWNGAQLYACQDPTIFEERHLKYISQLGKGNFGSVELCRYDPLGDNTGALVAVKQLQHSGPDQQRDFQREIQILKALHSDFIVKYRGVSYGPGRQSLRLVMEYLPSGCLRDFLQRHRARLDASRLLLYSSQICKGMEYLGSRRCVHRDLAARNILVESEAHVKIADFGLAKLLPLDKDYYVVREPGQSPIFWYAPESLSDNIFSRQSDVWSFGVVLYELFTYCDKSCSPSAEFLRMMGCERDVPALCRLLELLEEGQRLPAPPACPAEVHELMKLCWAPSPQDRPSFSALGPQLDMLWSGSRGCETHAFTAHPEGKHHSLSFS

[13] = molecular target: Tyrosine-protein kinase SYK (Homo sapiens, UniProt P43405); experiment: Inhibition of human SYK
[14] = molecular target: Cyclin-dependent kinase 4 (Homo sapiens, UniProt P11802); experiment: Inhibition of human CDK4
[15] = molecular target: Tyrosine-protein kinase JAK2 (Homo sapiens, UniProt O60674); experiment: Inhibition of human JAK2
[16] = molecular target: Cyclin-dependent kinase 6 (Homo sapiens, UniProt Q00534); experiment: Inhibition of human CDK6
[17] = molecular target: Cyclin-dependent kinase 9 (Homo sapiens, UniProt P50750); experiment: Inhibition of human CDK9
[18] = molecular target: Death-associated protein kinase 1 (Homo sapiens, UniProt P53355); experiment: Inhibition of human DAPK1

Sequence of Death-associated protein kinase 3 (O43293 whole entry): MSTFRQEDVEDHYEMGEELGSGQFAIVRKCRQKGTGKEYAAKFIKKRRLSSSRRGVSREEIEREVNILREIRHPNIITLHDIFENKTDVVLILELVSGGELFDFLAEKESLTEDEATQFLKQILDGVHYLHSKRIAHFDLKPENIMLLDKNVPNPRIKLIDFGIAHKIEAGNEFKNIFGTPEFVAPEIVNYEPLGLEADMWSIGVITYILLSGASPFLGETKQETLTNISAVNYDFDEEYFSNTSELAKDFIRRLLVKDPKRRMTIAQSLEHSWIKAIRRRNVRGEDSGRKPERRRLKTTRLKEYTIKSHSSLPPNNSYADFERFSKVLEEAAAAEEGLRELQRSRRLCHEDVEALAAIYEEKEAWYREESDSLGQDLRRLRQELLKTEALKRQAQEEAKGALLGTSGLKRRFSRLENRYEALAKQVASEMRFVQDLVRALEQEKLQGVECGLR
Sequence of Death-associated protein kinase 2 (Q9UIK4 whole entry): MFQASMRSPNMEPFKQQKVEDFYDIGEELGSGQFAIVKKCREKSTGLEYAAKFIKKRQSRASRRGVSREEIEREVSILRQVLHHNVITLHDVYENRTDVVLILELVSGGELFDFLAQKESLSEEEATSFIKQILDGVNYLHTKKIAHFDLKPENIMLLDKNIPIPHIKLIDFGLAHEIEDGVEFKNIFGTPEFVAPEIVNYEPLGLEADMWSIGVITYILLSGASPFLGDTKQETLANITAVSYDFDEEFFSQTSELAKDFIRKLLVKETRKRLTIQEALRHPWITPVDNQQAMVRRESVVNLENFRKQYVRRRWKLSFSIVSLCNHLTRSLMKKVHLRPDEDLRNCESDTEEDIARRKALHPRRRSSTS
Sequence of Tyrosine-protein kinase BTK (Q06187 whole entry): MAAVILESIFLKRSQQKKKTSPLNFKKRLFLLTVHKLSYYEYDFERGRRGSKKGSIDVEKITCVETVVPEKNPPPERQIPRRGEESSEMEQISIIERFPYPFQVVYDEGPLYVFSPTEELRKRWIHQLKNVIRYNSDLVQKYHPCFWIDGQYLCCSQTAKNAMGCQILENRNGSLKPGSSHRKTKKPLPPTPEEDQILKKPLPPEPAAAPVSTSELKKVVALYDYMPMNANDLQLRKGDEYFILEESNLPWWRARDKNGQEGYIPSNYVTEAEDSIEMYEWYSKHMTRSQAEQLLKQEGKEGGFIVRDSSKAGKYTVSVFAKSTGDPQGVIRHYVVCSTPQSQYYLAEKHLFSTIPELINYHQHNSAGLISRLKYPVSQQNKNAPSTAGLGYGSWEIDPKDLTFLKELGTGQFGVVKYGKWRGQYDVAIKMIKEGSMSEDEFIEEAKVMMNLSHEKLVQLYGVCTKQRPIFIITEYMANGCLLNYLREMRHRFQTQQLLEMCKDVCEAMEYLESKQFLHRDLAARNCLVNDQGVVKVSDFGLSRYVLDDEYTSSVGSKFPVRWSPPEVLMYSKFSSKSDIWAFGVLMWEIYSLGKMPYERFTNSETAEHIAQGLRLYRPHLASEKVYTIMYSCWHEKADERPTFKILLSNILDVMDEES
Sequence of Glycogen synthase kinase-3 beta (P49841 whole entry): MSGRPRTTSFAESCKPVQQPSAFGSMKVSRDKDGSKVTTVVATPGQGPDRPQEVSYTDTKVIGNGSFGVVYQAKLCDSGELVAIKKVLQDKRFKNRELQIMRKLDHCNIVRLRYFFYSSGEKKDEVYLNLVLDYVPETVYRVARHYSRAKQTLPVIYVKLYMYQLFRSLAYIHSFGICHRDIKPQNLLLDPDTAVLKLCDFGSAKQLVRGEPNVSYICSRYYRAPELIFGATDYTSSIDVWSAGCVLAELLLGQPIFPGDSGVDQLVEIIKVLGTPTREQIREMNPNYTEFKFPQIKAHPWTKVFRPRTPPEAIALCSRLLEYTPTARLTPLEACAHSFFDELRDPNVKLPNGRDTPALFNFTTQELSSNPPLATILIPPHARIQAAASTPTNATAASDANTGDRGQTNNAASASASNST
Sequence of Angiopoietin-1 receptor (Q02763 whole entry): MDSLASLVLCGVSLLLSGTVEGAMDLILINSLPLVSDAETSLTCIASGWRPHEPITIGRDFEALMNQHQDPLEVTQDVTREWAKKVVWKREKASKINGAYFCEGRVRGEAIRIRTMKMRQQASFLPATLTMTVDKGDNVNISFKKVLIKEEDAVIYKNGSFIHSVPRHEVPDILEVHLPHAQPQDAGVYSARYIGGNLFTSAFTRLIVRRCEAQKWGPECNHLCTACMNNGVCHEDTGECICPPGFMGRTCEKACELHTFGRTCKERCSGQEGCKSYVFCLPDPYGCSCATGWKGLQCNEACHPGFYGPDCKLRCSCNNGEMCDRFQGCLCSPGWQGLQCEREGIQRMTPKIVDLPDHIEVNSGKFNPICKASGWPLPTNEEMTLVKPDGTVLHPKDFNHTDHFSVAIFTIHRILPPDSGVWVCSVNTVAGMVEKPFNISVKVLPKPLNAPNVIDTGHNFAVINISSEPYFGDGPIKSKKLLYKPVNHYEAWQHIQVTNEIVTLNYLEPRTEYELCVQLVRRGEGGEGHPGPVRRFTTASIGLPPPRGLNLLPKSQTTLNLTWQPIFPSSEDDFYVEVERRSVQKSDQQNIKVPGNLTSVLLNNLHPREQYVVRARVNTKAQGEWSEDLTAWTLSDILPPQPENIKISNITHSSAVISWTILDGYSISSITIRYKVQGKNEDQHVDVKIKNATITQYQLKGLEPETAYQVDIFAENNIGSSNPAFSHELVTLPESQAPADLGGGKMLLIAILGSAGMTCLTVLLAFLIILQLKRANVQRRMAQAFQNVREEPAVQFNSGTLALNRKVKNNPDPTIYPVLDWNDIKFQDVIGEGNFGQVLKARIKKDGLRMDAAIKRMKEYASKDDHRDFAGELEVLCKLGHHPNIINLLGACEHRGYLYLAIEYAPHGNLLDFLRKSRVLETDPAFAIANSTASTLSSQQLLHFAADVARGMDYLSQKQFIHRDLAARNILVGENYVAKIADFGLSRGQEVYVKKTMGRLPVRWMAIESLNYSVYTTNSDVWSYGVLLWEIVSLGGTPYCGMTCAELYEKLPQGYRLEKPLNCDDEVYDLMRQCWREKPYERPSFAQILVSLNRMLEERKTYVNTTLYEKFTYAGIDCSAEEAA
Sequence of Cyclin-dependent kinase 5 (Q00535 whole entry): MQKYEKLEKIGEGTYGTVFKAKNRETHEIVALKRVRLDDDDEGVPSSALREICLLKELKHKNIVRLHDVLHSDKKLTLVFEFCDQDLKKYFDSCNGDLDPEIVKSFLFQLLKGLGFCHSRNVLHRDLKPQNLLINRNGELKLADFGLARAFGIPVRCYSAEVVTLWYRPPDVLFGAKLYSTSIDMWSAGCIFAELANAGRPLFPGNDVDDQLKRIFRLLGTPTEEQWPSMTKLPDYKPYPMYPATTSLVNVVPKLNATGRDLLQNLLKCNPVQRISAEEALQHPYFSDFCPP
Sequence of Tyrosine-protein kinase Blk (P51451 whole entry): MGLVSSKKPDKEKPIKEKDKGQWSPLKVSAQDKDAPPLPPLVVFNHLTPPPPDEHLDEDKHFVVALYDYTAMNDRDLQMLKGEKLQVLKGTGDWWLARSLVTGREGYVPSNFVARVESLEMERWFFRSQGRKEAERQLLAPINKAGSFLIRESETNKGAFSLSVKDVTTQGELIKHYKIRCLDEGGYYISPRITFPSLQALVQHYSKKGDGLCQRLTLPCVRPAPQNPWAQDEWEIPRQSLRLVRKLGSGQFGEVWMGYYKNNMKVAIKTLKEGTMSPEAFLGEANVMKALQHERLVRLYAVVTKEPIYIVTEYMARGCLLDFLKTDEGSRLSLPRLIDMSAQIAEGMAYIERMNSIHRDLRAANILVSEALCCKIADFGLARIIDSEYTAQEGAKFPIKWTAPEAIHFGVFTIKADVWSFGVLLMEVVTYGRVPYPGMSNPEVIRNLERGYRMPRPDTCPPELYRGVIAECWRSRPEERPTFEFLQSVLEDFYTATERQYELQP
Sequence of Cyclin-dependent kinase 4 (P11802 whole entry): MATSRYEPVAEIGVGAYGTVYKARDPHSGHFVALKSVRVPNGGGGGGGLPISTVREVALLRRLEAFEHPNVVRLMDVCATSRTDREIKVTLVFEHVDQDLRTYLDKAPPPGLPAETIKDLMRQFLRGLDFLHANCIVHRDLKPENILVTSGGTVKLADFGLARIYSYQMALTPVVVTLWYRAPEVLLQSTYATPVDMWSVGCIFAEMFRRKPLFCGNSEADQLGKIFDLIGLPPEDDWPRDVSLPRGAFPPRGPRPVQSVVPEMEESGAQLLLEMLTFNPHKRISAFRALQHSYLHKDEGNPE
Sequence of Cyclin-dependent kinase 6 (Q00534 whole entry): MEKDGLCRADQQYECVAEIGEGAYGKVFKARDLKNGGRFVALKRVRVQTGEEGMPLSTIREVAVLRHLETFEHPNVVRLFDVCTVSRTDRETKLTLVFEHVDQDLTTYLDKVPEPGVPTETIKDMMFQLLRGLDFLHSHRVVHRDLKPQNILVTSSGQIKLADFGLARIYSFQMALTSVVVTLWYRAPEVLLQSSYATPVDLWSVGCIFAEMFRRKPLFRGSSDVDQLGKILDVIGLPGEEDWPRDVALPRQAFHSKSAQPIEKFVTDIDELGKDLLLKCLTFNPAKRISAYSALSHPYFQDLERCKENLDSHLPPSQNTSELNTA
Sequence of Cyclin-dependent kinase 9 (P50750 whole entry): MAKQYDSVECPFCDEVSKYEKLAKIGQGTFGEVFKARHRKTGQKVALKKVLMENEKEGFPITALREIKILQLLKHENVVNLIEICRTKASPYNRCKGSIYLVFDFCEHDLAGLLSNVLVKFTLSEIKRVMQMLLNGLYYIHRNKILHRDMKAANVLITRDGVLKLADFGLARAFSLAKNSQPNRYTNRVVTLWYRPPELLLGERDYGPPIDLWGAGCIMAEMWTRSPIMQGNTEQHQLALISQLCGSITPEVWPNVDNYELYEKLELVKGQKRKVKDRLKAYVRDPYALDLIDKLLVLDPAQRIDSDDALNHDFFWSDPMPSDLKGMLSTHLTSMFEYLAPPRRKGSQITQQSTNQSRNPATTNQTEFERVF

SMILES	IC50 [1]	also measured
O=C1/C(=C/c2ccc(O)c(O)c2)Cc2ccccc21	13.3 µM	–
O=C1/C(=C/c2ccc(O)c(O)c2)Oc2ccccc21	3.08 to 3.15 µM	–
O=C1/C(=C/c2ccc(O)cc2)Oc2ccccc21	53 µM	–
O=C1/C(=C/c2ccc(F)cc2)Oc2ccccc21	40.5 µM	–
COc1cc(/C=C2\Oc3ccccc3C2=O)ccc1O	3.11 µM	–
COc1ccc(-c2cnc3scc(NC(=O)C4CCCCC4)c3c2)cc1OC	1.31 µM	IC50 [2]: 55 µM; IC50 [3]: 39.8 µM
O=C1/C(=C/c2ccc(CO)cc2)Oc2ccccc21	11.1 µM	–
O=C1/C(=C/c2ccco2)Oc2ccccc21	64 µM	–
O=C1c2ccccc2OC1Cc1ccc(O)c(O)c1 (stereo not given)	27.8 µM	–
COc1ccc(/C=C2\Oc3ccccc3C2=O)cc1O	12.1 µM	–
O=C1/C(=C/c2cccnc2)Oc2ccccc21	39.4 µM	–
O=C1/C(=C/c2ccc(O)c(O)c2)Oc2ccc(O)cc21	0.99 µM	–
CCCCOc1ccc2c(c1)C(=O)/C(=C/c1ccc(O)c(OCC)c1)O2	3.66 µM	–
CC(C)Oc1cc(/C=C2\Oc3ccccc3C2=O)ccc1O	17.4 µM	–
COc1ccc2c(c1)C(=O)/C(=C/c1ccc(O)c(O)c1)O2	0.25 µM	IC50 [4]: 3.05 µM; IC50 [2]: 6.34 µM; IC50 [5]: 1.05 µM; IC50 [6]: 5.03 µM; IC50 [3]: 12.1 µM; IC50 [7]: 2.19 µM; IC50 [8]: 5.3 µM; IC50 [9]: 8.84 µM; IC50 [10]: 0.51 µM; IC50 [11]: 5.81 µM
COc1cc(/C=C2\Oc3ccccc3C2=O)cc(OC)c1O	6.65 µM	–
CCOc1cc(/C=C2\Oc3ccc(OC(C)=O)cc3C2=O)ccc1O	0.69 µM	–
CCCCOc1cc(/C=C2\Oc3ccccc3C2=O)ccc1O	29.1 µM	–
CCCOc1cc(/C=C2\Oc3ccccc3C2=O)ccc1O	5.37 µM	–
O=C(c1ccc(O)c(O)c1)c1cc2ccccc2o1	22.9 µM	–
COc1ccc(/C=C2\Oc3ccccc3C2=O)cc1OC [3',4'-DIMETHOXY-AURONE]	21.4 µM	–
O=C1/C(=C/c2ccccc2)Oc2ccccc21 [(Z)-AURONE]	24.6 µM	–
O=C1/C(=C/c2ccc(O)c(O)c2)Oc2cc(O)ccc21 [SULFURETIN]	1.02 µM	IC50 [4]: 2.88 µM; IC50 [12]: 4.26 µM; IC50 [2]: 3.07 µM; IC50 [5]: 0.85 µM; IC50 [6]: 6.02 µM; IC50 [3]: 2.33 µM; IC50 [13]: 4.63 µM; IC50 [14]: 2.82 µM; IC50 [15]: 9.32 µM; IC50 [7]: 2.02 µM; IC50 [8]: 1.95 µM; IC50 [9]: 1.5 µM; IC50 [16]: 2.44 µM; IC50 [17]: 2.16 µM; IC50 [10]: 0.95 µM; IC50 [18]: 13.2 µM; IC50 [11]: 5.85 µM

Further lines, with some results ahead:

IC50 [1]	SMILES	also measured
3.24 µM	CCOc1cc(/C=C2\Oc3ccccc3C2=O)ccc1O	–
28.1 µM	CCOc1cc(/C=C2\Oc3ccc(Br)cc3C2=O)ccc1O	–
1.05 µM	CCOc1cc(/C=C2\Oc3ccc(F)cc3C2=O)ccc1O	–
1.29 µM	CCOc1cc(/C=C2\Oc3c(OC)cccc3C2=O)ccc1O	–
42.5 µM	CCOc1cc(/C=C2\Oc3ccc(I)cc3C2=O)ccc1O	–
0.41 µM	CCOc1ccc2c(c1)C(=O)/C(=C/c1ccc(O)c(OCC)c1)O2	–
40.5 µM	CCOc1cc(/C=C2\Oc3cc(Cl)ccc3C2=O)ccc1O	–
13.7 µM	CCOc1cc(/C=C2\Oc3ccc(Cl)cc3C2=O)ccc1O	–
7.26 µM	CCOc1cc(/C=C2\Oc3cccc(OC)c3C2=O)ccc1O	–
60.4 µM	CCOc1cc(/C=C2\Oc3cc(F)ccc3C2=O)ccc1O	–
2.44 µM	CCOc1cc(/C=C2\Oc3cc(OC)ccc3C2=O)ccc1O	–
0.96 µM	CCOc1cc(/C=C2\Oc3ccc(C)cc3C2=O)ccc1O	–
7.16 µM	CCOc1cc(/C=C2\Oc3ccc(N)cc3C2=O)ccc1O	–
